Data taken from patent US8633208B2, “6-1H-imidazo-quinazoline and quinolines derivatives, new MAO inhibitors and imidazoline receptor ligands” (Rottapharm S.p.A, priority 2008, dated 2014).
Where two headings read alike, the source gives them in different places.

Experiments:
CD1 Mice [1] = conditions: commercially available antidepressant drugs, subcutaneous; Millan MJ et al., 2001 JPET, 298(2): 581-591; cited from earlier work
I2 Imidazoline Receptor = experiment: Binding study towards I2 imidazoline receptor subtype in rat brain ([3H]2-BFI displacement); conditions: read-out: [3H]2-BFI binding IC50; rat whole brain membranes, [3H]-2BFI 2.5x10-9 M, 90 min at 25° C.
Description: Binding Study Towards I2 Imidazoline Receptor Subtype in Rat Brain.
Male Wistar rats (240-300 g, Harlan, Italy) were sacrificed by decapitation. Whole brains were immediately removed on ice and homogenised in 10 volumes of buffered sucrose (0.32M in 50 mM Tris-HCl, pH 7.4 at 4° C.) using a motor driven Teflon-glass homogeniser. The homogenate was centrifuged at 1000×g for 10 min at 4° C. The resultant supernatants were pooled and centrifuged at 32000×g for 20 min at 4° C. The supernatants were discarded and each pellet suspended in 10 volumes of assay buffer (50 mM Tris-HCl, 1 mM MgCl2, pH 7.4 at 4° C.) and spun at 32000×g for 20 min at 4° C. The pellets were washed twice by repeated centrifugation at 32000×g for 20 min at 4° C. The final pellets were stored at −80° C. until use. Prior to radioligand binding studies, membrane pellets were thawed and washed a further 4 times by re-suspension in 10 volumes of assay buffer (as above) and repeated centrifugation to remove any possible endogenous inhibitors of binding. […] Non specific binding was determined in the presence of 10^-5 M BU224 (Tocris Bioscience). The incubation, in a final volume of 1 ml, was performed in polystyrene multiwell 24, started adding membranes suspension and was carried out for 90 min at 25° C. With the exception of total binding and non specific binding, all concentration points were performed in duplicate. Compounds were tested in 3-5 different concentrations, ranging from 10^-10 M to 10^-5 M final concentration.

CD1 Mice [2] = experiment: Tail suspension test in mice; format: in vivo; conditions: for ED50: oral
Description: Tail Suspension Test in Mice
To evaluate novel antidepressants compounds several animal models have been developed. […] The antidepressant effect of representative examples of compounds of formula (I) has been evaluated according to the procedure below. The immobility was induced according to the procedure of Stem et al. (1985). CD1 Mice (Harlan, Italy) were individually suspended 75 cm above the top with an adhesive tape placed 1 cm from the tip of the tail. Immobility duration was recorded for 5 min. Mice were considered immobile only when they hung passively and completely motionless. Compounds were given orally, 30 min before the test at doses ranging between 0.3 and 30 mg/kg. Data collected were expressed as mean percent effect (MPE), which represents the % of inhibition in immobility time between the animals treated with representative compounds of formula (I) and the controls that received only the vehicle.

rats = experiment: CFA model of inflammatory pain in rats (Randall-Selitto), potentiation of a low dose of morphine; format: in vivo; conditions: rat, in vivo
human recombinant MAO-A = human recombinant MAO-A (Homo sapiens (Human), UniProt P21397); experiment: Monoaminooxidase (MAO) activity assay, MAO-Glo luminescent method, MAO-A; conditions: read-out: MAO A activity IC50; human recombinant MAO-A, substrate 40 μM, 60 min room temperature
Sequence of human recombinant MAO-A (P21397 whole entry): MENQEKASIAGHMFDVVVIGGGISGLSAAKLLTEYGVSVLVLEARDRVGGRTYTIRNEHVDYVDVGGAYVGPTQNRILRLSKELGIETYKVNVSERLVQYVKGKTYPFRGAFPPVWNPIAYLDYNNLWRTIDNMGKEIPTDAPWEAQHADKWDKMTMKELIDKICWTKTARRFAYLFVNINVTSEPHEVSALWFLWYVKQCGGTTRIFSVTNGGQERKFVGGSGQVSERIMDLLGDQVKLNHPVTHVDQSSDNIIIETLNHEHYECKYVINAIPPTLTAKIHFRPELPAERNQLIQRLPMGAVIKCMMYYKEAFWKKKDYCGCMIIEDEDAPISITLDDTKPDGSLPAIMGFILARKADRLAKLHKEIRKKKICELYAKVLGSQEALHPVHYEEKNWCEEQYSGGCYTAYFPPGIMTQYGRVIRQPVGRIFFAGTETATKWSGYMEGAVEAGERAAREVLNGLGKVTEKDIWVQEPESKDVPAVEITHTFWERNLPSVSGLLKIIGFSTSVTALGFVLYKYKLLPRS
Description: Monoaminooxidase (MAO) Activity Assay.
(§1) Inhibitory activity of compounds was evaluated by a homogeneous luminescent method, the MAO-Glo™ Assay (Promega), measuring the monoamine oxidase activity (MAOs) from recombinant source (microsomes from baculovirus infected insect cells, Sigma). Experiments were performed according to the Supplier's procedure, incubating human recombinant MAO-A or MAO-B with a luminogenic substrate, a derivative of beetle luciferin ((4S)-4,5-dihydro-2-(6-hydroxybenzothiazolyl)-4-thiazolecarboxylic acid). […] The MAO-Glo™ Assay was performed in two steps:
(§2) Step 1. The MAO reaction: MAO substrate was incubated with MAO-A or MAO-B (1 μg/sample) in the absence (Total activity) or presence (modulated activity) of test compounds. Total activity was determined in the presence the appropriate solvent. […] Reaction started adding the enzyme solution and samples were incubated for 60 min at room temperature. For negative control reaction, samples of MAO reaction buffer (100 mM Hepes, 5% glycerol, pH 7.5) indeed the test compound were included. For MAO-B activity assay, MAO reaction buffer contain 10% DMSO, in order to increase enzymatic activity. Step 2. […] At the end of incubation 50 μl of Luciferin Detection reagent were added to each well, plate was incubated at room temperature for 20 min, then luminescent signal was detected by luminometer (integration time 0.25-1 sec per well). […] Net MAO-dependent luminescence (net RLU) were calculated by subtracting the average luminescence of the negative control reaction without MAO enzyme. A reduction of net signal in the presence of test compound, with respect to total activity, reflect its effect on MAOs activity. […] A percentage of inhibition for each concentration tested were calculated and the IC50 value was estimated by linear regression.

human recombinant MAO-B = human recombinant MAO-B (Homo sapiens (Human), UniProt P27338); experiment: Monoaminooxidase (MAO) activity assay, MAO-Glo luminescent method, MAO-B
Sequence of human recombinant MAO-B (P27338 whole entry): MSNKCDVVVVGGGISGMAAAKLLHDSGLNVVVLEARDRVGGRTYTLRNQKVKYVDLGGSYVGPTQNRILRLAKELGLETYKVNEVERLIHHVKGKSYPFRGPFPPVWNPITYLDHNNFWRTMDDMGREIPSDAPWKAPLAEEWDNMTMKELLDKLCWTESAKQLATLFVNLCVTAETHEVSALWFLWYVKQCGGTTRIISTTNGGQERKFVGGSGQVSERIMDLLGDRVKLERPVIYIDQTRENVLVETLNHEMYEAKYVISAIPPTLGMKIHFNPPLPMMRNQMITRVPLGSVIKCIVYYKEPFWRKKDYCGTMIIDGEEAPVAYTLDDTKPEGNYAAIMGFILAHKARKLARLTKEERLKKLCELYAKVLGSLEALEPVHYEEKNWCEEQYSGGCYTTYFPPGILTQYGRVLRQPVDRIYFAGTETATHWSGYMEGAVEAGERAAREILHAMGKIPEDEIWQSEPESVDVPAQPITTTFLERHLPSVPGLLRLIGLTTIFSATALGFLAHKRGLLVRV
Description: Monoaminooxidase (MAO) Activity Assay.
as §1, §2

COc1ccc(C(CN(C)C)C2(O)CCCCC2)cc1 (centres unmarked) [Venlafaxine]
ED50 (CD1 Mice [1]): 11.7 mg/Kg; SC

CCOc1ccccc1OC(c1ccccc1)C1CNCCO1 (centres unmarked) [Reboxetine]
ED50 (CD1 Mice [1]): 4.2 mg/Kg; SC

c1ccc(-c2ncc3cc(-n4ccnc4)ccc3n2)cc1 [Example 1, [6-(1H-imidazol-1-yl)-2-phenyl]quinazoline]
IC50 (I2 Imidazoline Receptor): 680 nM
antidepressant-like effect in the presence of Idazoxan (CD1 Mice [2]; 0.3 mg/Kg Idazoxan, antagonist of imidazoline (I2) receptors): blocked
MPE (% inhibition in immobility time) (CD1 Mice [2]; Table 3, dose 0.3 mg/Kg OS, 30 min before the test): 35%
MPE (% inhibition in immobility time) (CD1 Mice [2]; Table 3, dose 1 mg/Kg OS, 30 min before the test): 38%
MPE (% inhibition in immobility time) (CD1 Mice [2]; Table 3, dose 3 mg/Kg OS, 30 min before the test): 40%
MPE (% inhibition in immobility time) (CD1 Mice [2]; Table 3, dose 10 mg/Kg OS, 30 min before the test): 66%
MPE (% inhibition in immobility time) (CD1 Mice [2]; Table 3, dose 30 mg/Kg OS, 30 min before the test): 84%
ED50 (CD1 Mice [2]; Table 3, dose yielding 50% reduction of immobility): 4.8 mg/Kg; OS
MPE (% inhibition in immobility time) (CD1 Mice [2]; Table 4, Example 1 dose 3 mg/Kg OS, alone or with Idazoxan 0.3 mg/Kg IP): 43%
MPE (% inhibition in immobility time) (CD1 Mice [2]; Table 4, Example 1 dose 10 mg/Kg OS, alone or with Idazoxan 0.3 mg/Kg IP): 54%
MPE (% inhibition in immobility time) (CD1 Mice [2]; Table 4, Example 1 dose 30 mg/Kg OS, alone or with Idazoxan 0.3 mg/Kg IP): 97%
ED50 (CD1 Mice [2]; Table 4): 5.1 mg/Kg; OS
MPE 2 h (difference in pain threshold) (rats): 17.19%
MPE 3 h (difference in pain threshold) (rats): 6.61%
MPE 4 h (difference in pain threshold) (rats): 2.46%
IC50 (human recombinant MAO-A): 220 nM
IC50 (human recombinant MAO-B): > 10000 nM

CN(C)CCCC1(c2ccc(F)cc2)OCc2cc(C#N)ccc21 (centres unmarked) [Citalopram]
ED50 (CD1 Mice [1]): 8.8 mg/Kg; SC
